Where no end group is shown, it is not given here. The star is where a group is joined. FITC = O=C1OC2(c3ccc(O)cc3Oc3cc(O)ccc32)c2ccc(NC(=S)*)cc21; Biotin = O=C1N[C@H]2[C@H](CS[C@H]2CCCCC(=O)*)N1; Ahx = NCCCCCC(=O)O
What was measured:
[1] = test system: FAN1-USP7; experiment: GFP-Trap co-IP after UAE inhibition, FAN1-USP7 binding; format: cell-based, human; conditions: HEK293T cells, 10 μM for 2 h
Protocol: Cells were lysed in NP-40 buffer [50 mM tris-HCl (pH 7.5), 120 mM NaCl, 1 mM EDTA, 6 mM EGTA, 15 mM sodium pyrophosphate, and 1% NP-40, supplemented with phosphatase inhibitors (20 mM NaF and 1 mM Na3VO4) and protease inhibitors (1 mM benzamidine, 0.1 mM PMSF and cOmplete™ Protease Inhibitor Cocktail)], incubated with Benzonase (Merck) for at least 30 min at 4 °C, and clarified by centrifugation. Between 1 and 3 mg of lysates were incubated with anti-FLAG M2 (Sigma-Aldrich) or ChromoTek GFP-Trap® Agarose resin (Proteintech) for 2 h or overnight at 4 °C. The beads were then washed three times with NP-40 buffer and once with TEN100 buffer. Retrieved protein complexes were boiled in SDS sample buffer and analysed by SDS-PAGE followed by immunoblotting.
(§1) Figure S1 (related to Figure 1). […]
ubiquitin. (A) HEK293eGFP-FAN1 cells were transfected either with non-targeting (Ctrl) or the indicated siRNA oligos. 24 h later, GFP-FAN1 expression was induced with Dox (100 ng/ml). 24 h post induction, cells were lysed and whole-cell extracts were subjected to GFP-Trap resin. Inputs and recovered protein complexes were analysed by immunoblotting. (B) HEK293 cells were transfected with either e.v. or GFP-FAN1-wt expressing constructs. […] Inputs and recovered protein complexes were analysed by immunoblotting. […] Inputs and recovered protein complexes were analysed by immunoblotting. […]

[2] = test system: cellular ubiquitin conjugates; experiment: cellular ubiquitin conjugates after UAE inhibition; format: cell-based; conditions: HEK293T cells, 10 μM for 2 h
Protocol: as §1
ubiquitin. (A) HEK293eGFP-FAN1 cells were transfected either with non-targeting (Ctrl) or the indicated siRNA oligos. 24 h later, GFP-FAN1 expression was induced with Dox (100 ng/ml). 24 h post induction, cells were lysed and whole-cell extracts were subjected to GFP-Trap resin. Inputs and recovered protein complexes were analysed by immunoblotting. (B) HEK293 cells were transfected with either e.v. or GFP-FAN1-wt expressing constructs. 48 h later, cells were lysed and whole-cell extracts were incubated with a FAN1-derived 60-mer peptide (aa 118 to 177) for 2 h and subjected to GFP-Trap resin. Inputs and recovered protein complexes were analysed by immunoblotting. (C) HEK293T cells were transfected with either e.v. or GFP-FAN1-wt expressing constructs. 48 h later, cells were either mock-treated (-) or treated (+) with TAK-243 (10 μM) for 2 h, lysed and whole-cell extracts were subjected to GFP-Trap resin. Inputs and recovered protein complexes were analysed by immunoblotting. The experiments in (A-C) were repeated three independent times.
(1 picture or pasted object on this page, not shown here)

[3] = test system: USP7; experiment: streptavidin pulldown of biotinylated FAN1 peptides with recombinant His-USP7; format: binding, human; conditions: 10 µg peptide on Strep-Tactin XT 4Flow resin, 0.5 µg recombinant USP7, 2 h at 4 °C, immunoblot; for USP7 binding of biotinylated FAN1 peptide: 12mer TRAF peptides, repeated three times; for USP7 binding of biotinylated FAN1 UBL peptide: 13mer UBL peptides
Protocol: (§2) Fig. 2 FAN1 associates with the TRAF-like and UBL domains of USP7. A Top: schematic representation of the human USP7 protein indicating point mutants. TRAF tumour necrosis factor receptor associated factor (orange), CD catalytic domain (cyan), UBL ubiquitin-like (yellow to brown). Bottom: HEK293^eGFP-FAN1 cells were transfected with either e.v. or the indicated FLAG-USP7 expression constructs. 24 h later, GFP-FAN1 expression was induced with Dox (100 ng/ml). 48 h post induction, cells were lysed and whole-cell extracts were subjected to IP using anti-FLAG M2 affinity resin. Inputs and recovered protein complexes were analysed by immunoblotting. Asterisk indicates IgG heavy chain from anti-FLAG M2 affinity resin. B Sequences of the biotinylated 12-mer FAN1-derived TRAF peptides. The corresponding amino acids are indicated. Key residues are highlighted in bold. B, C Biotinylated FAN1 TRAF peptides (10 µg) were immobilized on Strep-Tactin®XT-4Flow® resin and incubated with recombinant purified His-USP7. Inputs and recovered His-USP7 were analysed by immunoblotting. D Fluorescence polarization (FP) binding curves of FITC-labelled FAN1-derived 8mer peptides: wild-type (wt; black circle), P181A (green triangle), Q182A (orange diamond), S184A (red square). The corresponding amino acids are indicated. Key residues are highlighted in bold. FP was measured as a function of USP7-TRAF (aa 2–207) concentration. FP values were normalized by expressing the millipolarization (mP) of each sample relative to the corresponding wild-type peptide. Background signal was corrected by subtracting baseline FP measured in the absence of USP7-TRAF. Data are presented as the means ± SD of three biological replicates (n = 3). E Top: schematic representation of the human USP7 protein indicating truncation mutants. TRAF tumour necrosis factor receptor associated factor, CD catalytic domain, UBL ubiquitin-like. HEK293^eGFP-FAN1 cells were transfected with either e.v. or the indicated FLAG-USP7 expression constructs. 24 h later, GFP-FAN1 expression was induced with Dox (100 ng/ml). 48 h post induction, cells were lysed and whole-cell extracts were subjected to IP using anti-FLAG M2 affinity resin. Inputs and recovered protein complexes were analysed by immunoblotting. Asterisk indicates IgG heavy chain from anti-FLAG M2 affinity resin. The experiments in (A–C, E) were repeated three independent times.
For peptide pull-down assays, biotinylated FAN1 peptides were incubated with Strep-Tactin® XT 4Flow® resin (IBA LifeScience) at room temperature for 30 minutes and washed four times with 0.1% Triton-PBS and two times with HNE buffer (20 mM HEPES pH 7.5, 0.2 mM EDTA, 0.5% NP-40, 150 mM NaCl, 0.5 mM DTT, 0.1% BSA, 0.5 mM PMSF). […] Beads were then washed three times with HNE buffer, once with TEN300 (20 mM Tris-HCl pH 7.4, 0.1 mM EDTA and 300 mM NaCl) and once with TEN100 buffer. Complexes were boiled in SDS sample buffer and analysed by SDS–PAGE followed by immunoblotting.
Figure S3 (Related to Figure 2). USP7 contacts FAN1 via its UBL domain. […]
Inputs and recovered MBP-His-FAN1 were analysed by immunoblotting. (C) Sequences of the biotinylated 13-mer FAN1-derived UBL peptides. The corresponding amino acids are indicated. Key residues are highlighted in bold. (C and D) Biotinylated FAN1 UBL peptides (10 µg) were immobilized on Strep-Tactin® XT 4Flow® resin and incubated with recombinant purified His-USP7. Inputs and recovered His-USP7 were analysed by immunoblotting. […]
The experiments in (A-E) were repeated three independent times.

[4] = test system: USP7 TRAF (aa 2-207); experiment: fluorescence polarization assay, FITC-labelled FAN1-derived peptides; format: binding, human; conditions: 8mer FITC-labelled peptides; 20 mM HEPES pH 7.4, 50 mM KCl, 1 mM TCEP, 0.005% Tween-20, 0.2% DMSO; USP7 TRAF 14-point 2-fold from 200 µM; 1 µL of 200 nM peptide added to 19 µL; n = 3
Protocol: as §2, with “Data are presented as the means ± SD of three biological replicates (n = 3). E Top: schematic representation of the human USP7 protein indicating truncation mutants. TRAF tumour necrosis factor receptor associated factor, CD catalytic domain, UBL ubiquitin-like. HEK293^eGFP-FAN1 cells were transfected with either e.v. or the indicated FLAG-USP7 expression constructs. 24 h later, GFP-FAN1 expression was induced with Dox (100 ng/ml). 48 h post induction, cells were lysed and whole-cell extracts were subjected to IP using anti-FLAG M2 affinity resin.” left out, “Asterisk indicates IgG heavy chain from anti-FLAG M2 affinity resin. The experiments in (A–C, E) were repeated three independent times.” left out
USP7 TRAF (aa 2-207) was serially diluted (14-point, 2-fold) in assay buffer (20 mM HEPES (pH 7.4), 50 mM KCl, 1 mM TCEP, 0.005% Tween-20 (v/v), 0.2% DMSO (v/v)) from a top concentration of 200 µM. […] Fluorescence polarization (mP, millipolarization units) was measured using Agilent BioTek Synergy H1 with excitation 485 nm, emission 528 nm, gain 80, in a kinetic read (6 measurements in 30 min). […]

NS(=O)(=O)OC[C@H]1C[C@@H](Nc2ccnc3cc(-c4cccc(SC(F)(F)F)c4)nn23)[C@H](O)[C@@H]1O [TAK-243]
FAN1-USP7 binding [1]: did not impact FAN1-USP7 binding | cellular ubiquitin conjugates [2]: depletion of cellular ubiquitin conjugates

Biotin-AGSSPQSAKSTV-NH2 [TRAF3 S184A (12mer), biotinylated 12mer FAN1 peptide, S184A]
USP7 binding of biotinylated FAN1 peptide ([3]; listed as S184A ‘TRAF3’ mutant peptide): failed to bind | USP7 binding of biotinylated FAN1 peptide ([3]; listed as serine residue 184 to alanine (S184A)): abrogated USP7 binding

Biotin-PLEQGSSCNGPG-NH2 [TRAF4 (12mer), biotinylated 12mer FAN1 peptide containing the 358-EQGS-361 motif]
USP7 binding of biotinylated FAN1 peptide [3]: weak USP7 binding

Biotin-SLASALSRAYVKA-NH2 [UBL2 2KA (12mer), FAN1 UBL2 K158A/K162A (2KA) 13mer peptide]
USP7 binding of biotinylated FAN1 UBL peptide [3]: did not abolish USP7 association | USP7 binding of biotinylated FAN1 UBL peptide ([3]; listed as K158A/K162A ‘UBL2’ mutant peptide): no reduction in USP7 binding

Biotin-SLASKLSRKYVKA-NH2 [UBL2 (12mer), biotinylated FAN1-derived 13mer UBL peptide with 158-KLSRK-162]
USP7 binding of biotinylated FAN1 UBL peptide [3]: exhibited detectable USP7 binding

{FITC-Ahx}-SSAQSSKS [TRAF3 P181A (8mer), FITC-labelled FAN1-derived 8mer peptide, P181A]
binding to the USP7 TRAF domain (FP) [4]: did not abolish the interaction

{FITC-Ahx}-SSPQSAKS [TRAF3 S184A (8mer), FITC-labelled FAN1-derived 8mer peptide, S184A]
binding to the USP7 TRAF domain (FP) [4]: markedly impaired binding

{FITC-Ahx}-SSPQSSKS [TRAF3 (8mer), FITC-labelled FAN1-derived 8mer peptide, wild-type]
binding to the USP7 TRAF domain (FP) [4]: bound efficiently to the USP7 TRAF domain

Reference: paper PMC13086964, “USP7 deubiquitinase stabilizes FAN1 to support DNA crosslink repair and suppress CAG repeat expansion” (Nature Communications, 2026)
